In ChEMBL document CHEMBL3085719, “Structure-based design and synthesis of potent benzothiazole inhibitors of interleukin-2 inducible T cell kinase (ITK)” (Bioorg Med Chem Lett, 2013):
In brackets after ≈: the same amount, converted by molar mass.

Tests used:
[1] = Lipophilicity, log D of the compound at pH 7.4; conditions: buffer
[2] = molecular target: Tyrosine-protein kinase Lck (Homo sapiens, UniProt P06239); assay: Inhibition of LCK (unknown origin)
[3] = Aqueous solubility of the compound at pH 7.4; format: physicochemical; conditions: buffer
[4] = molecular target: T1, Tyrosine-protein kinase ITK/TSK (Homo sapiens, UniProt Q08881); assay: Inhibition of full length GST-tagged ITK (unknown origin) using Ac-EFPIYDFLPAKKK-NH2 as substrate after 35 mins by LC/MS analysis
T1 sequence (Q08881 whole entry): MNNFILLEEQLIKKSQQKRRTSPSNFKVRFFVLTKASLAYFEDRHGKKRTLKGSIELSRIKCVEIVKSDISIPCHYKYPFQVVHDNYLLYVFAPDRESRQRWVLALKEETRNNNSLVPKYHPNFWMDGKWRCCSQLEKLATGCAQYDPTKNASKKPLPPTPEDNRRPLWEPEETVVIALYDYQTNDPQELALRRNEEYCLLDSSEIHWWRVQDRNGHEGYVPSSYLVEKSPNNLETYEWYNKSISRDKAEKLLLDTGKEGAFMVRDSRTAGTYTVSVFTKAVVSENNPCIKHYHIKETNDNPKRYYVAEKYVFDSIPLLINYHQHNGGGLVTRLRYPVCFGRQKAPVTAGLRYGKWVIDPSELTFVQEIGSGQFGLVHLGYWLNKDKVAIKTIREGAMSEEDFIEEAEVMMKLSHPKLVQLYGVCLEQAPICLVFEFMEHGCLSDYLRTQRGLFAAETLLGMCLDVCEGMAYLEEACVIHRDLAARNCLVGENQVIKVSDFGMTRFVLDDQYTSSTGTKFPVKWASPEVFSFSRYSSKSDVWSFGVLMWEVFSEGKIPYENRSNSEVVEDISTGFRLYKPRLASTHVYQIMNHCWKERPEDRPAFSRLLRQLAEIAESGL

[5] = molecular target: T1, Tyrosine-protein kinase ITK/TSK; assay: Inhibition of ITK in human Jurkat cells assessed as inhibition of PLC-gamma1 phosphorylation by immuno-detection assay; format: cell-based
[6] = molecular target: Tyrosine-protein kinase ABL1 (Homo sapiens) (UniProt P00519); assay: Inhibition of ABL (unknown origin) at 1 uM relative to control
[7] = molecular target: T2, Muscle, skeletal receptor tyrosine-protein kinase (Homo sapiens) (UniProt O15146); assay: Inhibition of MUSK (unknown origin) at 1 uM relative to control
T2 sequence (whole entry): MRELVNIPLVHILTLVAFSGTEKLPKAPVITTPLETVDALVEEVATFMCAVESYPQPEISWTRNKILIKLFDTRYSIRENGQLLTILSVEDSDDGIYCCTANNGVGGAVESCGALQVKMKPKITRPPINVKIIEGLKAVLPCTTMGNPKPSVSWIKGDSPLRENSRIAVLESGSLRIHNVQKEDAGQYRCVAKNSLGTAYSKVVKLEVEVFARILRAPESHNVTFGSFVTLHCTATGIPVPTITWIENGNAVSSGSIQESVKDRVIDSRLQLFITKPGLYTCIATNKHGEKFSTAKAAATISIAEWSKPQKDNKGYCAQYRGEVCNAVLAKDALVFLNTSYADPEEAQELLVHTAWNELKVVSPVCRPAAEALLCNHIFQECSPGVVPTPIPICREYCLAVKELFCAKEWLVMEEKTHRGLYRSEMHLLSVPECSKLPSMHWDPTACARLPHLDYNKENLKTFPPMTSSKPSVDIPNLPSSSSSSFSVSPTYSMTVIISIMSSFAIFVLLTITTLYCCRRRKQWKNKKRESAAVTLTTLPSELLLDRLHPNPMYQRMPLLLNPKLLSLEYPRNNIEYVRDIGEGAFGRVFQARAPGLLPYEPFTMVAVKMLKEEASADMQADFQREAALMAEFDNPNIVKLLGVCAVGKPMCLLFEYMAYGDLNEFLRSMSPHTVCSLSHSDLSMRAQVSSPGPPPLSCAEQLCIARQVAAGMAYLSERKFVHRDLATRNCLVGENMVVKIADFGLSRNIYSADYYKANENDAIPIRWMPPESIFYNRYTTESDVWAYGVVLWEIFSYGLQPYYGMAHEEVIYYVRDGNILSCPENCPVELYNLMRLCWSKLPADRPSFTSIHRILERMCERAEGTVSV

[8] = test system: RAF proto-oncogene serine/threonine-protein kinase (Homo sapiens), P04049 [Y340D,Y341D]; assay: Inhibition of RAF Y340D/Y341D double mutant (unknown origin) at 1 uM relative to control
[9] = Half life in rat at 5 mg/kg, po; format: ADME, organism-based; set-up: dose 5 mg/kg, route oral; conditions: in vivo
[10] = molecular target: Casein kinase I isoform alpha (Homo sapiens) (UniProt P48729); assay: Inhibition of CK1alpha (unknown origin) at 0.1 uM relative to control
[11] = Half life in rat at 1 mg/kg, iv; format: ADME, organism-based; set-up: dose 1 mg/kg, route intravenous; conditions: in vivo
[12] = molecular target: Cyclin-dependent kinase 2 (Homo sapiens) (UniProt P24941); assay: Inhibition of CDK2 (unknown origin) at 0.1 uM relative to control
[13] = molecular target: Serine/threonine-protein kinase PAK 4 (Homo sapiens) (UniProt O96013); assay: Inhibition of PAK4 (unknown origin) at 0.1 uM relative to control
[14] = AUC (last) in rat at 5 mg/kg, po; format: ADME, organism-based; set-up: time 0 - last, dose 5 mg/kg, route oral; conditions: plasma
[15] = Volume of distribution at steady state in rat at 1 mg/kg, iv; format: ADME, organism-based; set-up: dose 1 mg/kg, route intravenous; conditions: in vivo, read-out: Vdss
[16] = molecular target: Tyrosine-protein kinase Yes (Homo sapiens) (UniProt P07947); assay: Inhibition of YES (unknown origin) at 0.1 uM relative to control
[17] = molecular target: Receptor-type tyrosine-protein kinase FLT3 (Homo sapiens) (UniProt P36888); assay: Inhibition of FLT3 (unknown origin) at 0.1 uM relative to control
[18] = molecular target: T3, Tyrosine-protein kinase TXK (Homo sapiens) (UniProt P42681); assay: Inhibition of TXK (unknown origin) at 0.1 uM relative to control
T3 sequence (whole entry): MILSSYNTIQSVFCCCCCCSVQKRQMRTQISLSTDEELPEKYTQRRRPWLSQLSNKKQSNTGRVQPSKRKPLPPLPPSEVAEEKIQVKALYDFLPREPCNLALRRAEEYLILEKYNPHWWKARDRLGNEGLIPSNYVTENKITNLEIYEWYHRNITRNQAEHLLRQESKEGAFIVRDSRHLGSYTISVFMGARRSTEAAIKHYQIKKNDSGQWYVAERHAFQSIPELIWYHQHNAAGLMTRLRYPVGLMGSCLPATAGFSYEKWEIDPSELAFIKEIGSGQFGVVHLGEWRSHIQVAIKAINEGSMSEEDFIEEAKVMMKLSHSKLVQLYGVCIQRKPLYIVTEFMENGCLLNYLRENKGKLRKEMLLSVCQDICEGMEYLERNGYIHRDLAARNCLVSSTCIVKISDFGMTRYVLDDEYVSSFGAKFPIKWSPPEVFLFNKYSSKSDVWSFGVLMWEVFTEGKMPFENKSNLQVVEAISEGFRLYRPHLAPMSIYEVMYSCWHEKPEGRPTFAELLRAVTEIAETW

[19] = Oral bioavailability in rat at 5 mg/kg; format: ADME, organism-based; conditions: in vivo
[20] = Clearance in rat at 1 mg/kg, iv; format: ADME, organism-based; set-up: dose 1 mg/kg, route intravenous; conditions: in vivo
[21] = molecular target: Tyrosine-protein kinase ABL1 (Homo sapiens) (UniProt P00519); assay: Inhibition of ABL (unknown origin) at 0.1 uM relative to control
[22] = molecular target: Vascular endothelial growth factor receptor 2 (Homo sapiens) (UniProt P35968); assay: Inhibition of KDR (unknown origin) at 0.1 uM relative to control
[23] = AUC (last) in rat at 1 mg/kg, iv; format: ADME, organism-based; set-up: time 0 - last, dose 1 mg/kg, route intravenous; conditions: plasma

Chain of Tyrosine-protein kinase Lck (P06239 whole entry): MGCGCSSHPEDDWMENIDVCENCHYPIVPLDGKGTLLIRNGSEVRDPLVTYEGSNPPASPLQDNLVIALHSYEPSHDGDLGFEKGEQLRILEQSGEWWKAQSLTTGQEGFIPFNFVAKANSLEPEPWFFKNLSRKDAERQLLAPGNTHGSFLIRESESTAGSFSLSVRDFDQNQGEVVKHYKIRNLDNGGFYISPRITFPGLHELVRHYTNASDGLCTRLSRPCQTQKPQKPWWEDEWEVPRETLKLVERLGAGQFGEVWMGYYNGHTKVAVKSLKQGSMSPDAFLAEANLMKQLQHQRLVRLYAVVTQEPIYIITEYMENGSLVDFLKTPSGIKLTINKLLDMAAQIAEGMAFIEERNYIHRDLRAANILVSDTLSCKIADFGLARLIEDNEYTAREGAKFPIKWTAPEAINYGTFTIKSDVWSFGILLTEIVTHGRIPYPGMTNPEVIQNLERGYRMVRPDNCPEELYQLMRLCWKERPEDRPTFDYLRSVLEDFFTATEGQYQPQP
Chain of Tyrosine-protein kinase ABL1 (Homo sapiens) (P00519 whole entry): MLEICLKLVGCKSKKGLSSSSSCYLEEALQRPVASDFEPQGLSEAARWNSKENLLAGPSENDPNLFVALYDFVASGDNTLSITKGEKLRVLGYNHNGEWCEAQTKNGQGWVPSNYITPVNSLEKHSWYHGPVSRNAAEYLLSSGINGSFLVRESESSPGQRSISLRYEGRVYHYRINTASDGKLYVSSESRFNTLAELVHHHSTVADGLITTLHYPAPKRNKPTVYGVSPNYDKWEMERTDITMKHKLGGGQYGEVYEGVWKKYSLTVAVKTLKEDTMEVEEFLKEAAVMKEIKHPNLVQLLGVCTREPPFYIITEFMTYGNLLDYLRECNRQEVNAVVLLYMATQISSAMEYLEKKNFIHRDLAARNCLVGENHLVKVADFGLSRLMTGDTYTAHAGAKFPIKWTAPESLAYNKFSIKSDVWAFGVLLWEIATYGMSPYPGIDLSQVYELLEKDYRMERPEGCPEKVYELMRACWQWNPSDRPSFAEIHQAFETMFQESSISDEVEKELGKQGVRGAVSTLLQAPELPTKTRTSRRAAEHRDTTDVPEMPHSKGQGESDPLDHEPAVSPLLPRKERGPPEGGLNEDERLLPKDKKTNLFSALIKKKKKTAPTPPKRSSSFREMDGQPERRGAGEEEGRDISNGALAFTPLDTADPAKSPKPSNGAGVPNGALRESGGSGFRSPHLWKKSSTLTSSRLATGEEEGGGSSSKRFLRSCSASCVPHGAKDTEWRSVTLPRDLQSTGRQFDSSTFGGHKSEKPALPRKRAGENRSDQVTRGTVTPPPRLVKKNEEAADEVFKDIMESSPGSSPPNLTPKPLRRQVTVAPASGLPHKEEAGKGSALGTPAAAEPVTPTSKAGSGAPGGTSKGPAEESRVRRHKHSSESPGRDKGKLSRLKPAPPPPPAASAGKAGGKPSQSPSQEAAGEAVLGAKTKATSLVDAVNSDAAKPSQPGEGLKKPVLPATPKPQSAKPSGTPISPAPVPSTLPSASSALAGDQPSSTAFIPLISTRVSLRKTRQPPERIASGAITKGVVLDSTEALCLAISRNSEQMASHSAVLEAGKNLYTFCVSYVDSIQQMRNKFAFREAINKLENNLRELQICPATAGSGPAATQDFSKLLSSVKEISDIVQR
Chain of Receptor-type tyrosine-protein kinase FLT3 (Homo sapiens) (P36888 whole entry): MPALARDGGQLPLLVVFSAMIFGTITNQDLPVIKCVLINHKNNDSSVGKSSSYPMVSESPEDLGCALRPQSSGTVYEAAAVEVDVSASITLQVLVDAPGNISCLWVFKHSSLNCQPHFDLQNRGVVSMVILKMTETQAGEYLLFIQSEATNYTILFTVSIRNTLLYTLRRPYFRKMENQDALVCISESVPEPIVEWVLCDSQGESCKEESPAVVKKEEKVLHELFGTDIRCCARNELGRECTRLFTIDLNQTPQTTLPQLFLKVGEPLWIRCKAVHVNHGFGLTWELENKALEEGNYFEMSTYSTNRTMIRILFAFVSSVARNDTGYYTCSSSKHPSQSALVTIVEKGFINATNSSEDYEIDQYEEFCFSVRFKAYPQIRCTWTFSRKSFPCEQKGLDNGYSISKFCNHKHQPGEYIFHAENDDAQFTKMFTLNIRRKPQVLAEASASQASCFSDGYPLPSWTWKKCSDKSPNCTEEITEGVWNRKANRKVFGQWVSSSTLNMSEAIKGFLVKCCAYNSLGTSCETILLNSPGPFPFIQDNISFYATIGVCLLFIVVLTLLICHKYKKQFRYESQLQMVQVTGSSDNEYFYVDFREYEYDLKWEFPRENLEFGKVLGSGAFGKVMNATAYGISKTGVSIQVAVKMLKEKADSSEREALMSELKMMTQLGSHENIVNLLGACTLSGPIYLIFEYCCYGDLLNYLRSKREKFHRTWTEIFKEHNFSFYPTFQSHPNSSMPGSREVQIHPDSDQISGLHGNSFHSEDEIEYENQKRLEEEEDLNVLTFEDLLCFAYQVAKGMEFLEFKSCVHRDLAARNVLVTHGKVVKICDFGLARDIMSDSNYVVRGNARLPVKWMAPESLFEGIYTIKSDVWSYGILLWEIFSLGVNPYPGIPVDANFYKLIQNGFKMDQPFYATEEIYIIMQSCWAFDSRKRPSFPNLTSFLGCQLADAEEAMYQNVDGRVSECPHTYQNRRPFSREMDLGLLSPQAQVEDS
Chain of Tyrosine-protein kinase Yes (Homo sapiens) (P07947 2-543 limits assumed): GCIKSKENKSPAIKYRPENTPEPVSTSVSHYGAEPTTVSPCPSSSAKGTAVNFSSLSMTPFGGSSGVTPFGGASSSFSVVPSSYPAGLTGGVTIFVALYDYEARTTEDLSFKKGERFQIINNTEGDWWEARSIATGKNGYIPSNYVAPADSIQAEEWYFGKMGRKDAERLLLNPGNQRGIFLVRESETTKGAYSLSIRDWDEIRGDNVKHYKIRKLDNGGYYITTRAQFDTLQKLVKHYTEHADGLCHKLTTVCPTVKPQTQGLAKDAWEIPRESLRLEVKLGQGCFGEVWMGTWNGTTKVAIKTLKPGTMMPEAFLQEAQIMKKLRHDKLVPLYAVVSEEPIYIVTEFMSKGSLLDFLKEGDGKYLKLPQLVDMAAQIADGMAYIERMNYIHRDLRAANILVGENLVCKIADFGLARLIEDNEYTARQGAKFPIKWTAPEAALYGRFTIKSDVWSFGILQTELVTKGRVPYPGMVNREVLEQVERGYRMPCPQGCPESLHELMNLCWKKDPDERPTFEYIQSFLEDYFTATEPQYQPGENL
Chain of Casein kinase I isoform alpha (Homo sapiens) (P48729 2-337 limits assumed): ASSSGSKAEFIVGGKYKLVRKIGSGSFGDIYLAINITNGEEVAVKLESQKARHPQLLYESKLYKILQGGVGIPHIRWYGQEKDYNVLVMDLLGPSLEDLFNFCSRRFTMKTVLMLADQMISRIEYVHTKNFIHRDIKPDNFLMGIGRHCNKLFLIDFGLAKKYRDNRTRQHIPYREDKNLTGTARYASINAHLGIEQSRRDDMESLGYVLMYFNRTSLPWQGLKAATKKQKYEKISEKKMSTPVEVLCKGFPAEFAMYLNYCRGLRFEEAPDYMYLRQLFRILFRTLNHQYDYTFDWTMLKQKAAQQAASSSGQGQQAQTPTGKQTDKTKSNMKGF
Chain of Serine/threonine-protein kinase PAK 4 (Homo sapiens) (O96013 whole entry, looked up): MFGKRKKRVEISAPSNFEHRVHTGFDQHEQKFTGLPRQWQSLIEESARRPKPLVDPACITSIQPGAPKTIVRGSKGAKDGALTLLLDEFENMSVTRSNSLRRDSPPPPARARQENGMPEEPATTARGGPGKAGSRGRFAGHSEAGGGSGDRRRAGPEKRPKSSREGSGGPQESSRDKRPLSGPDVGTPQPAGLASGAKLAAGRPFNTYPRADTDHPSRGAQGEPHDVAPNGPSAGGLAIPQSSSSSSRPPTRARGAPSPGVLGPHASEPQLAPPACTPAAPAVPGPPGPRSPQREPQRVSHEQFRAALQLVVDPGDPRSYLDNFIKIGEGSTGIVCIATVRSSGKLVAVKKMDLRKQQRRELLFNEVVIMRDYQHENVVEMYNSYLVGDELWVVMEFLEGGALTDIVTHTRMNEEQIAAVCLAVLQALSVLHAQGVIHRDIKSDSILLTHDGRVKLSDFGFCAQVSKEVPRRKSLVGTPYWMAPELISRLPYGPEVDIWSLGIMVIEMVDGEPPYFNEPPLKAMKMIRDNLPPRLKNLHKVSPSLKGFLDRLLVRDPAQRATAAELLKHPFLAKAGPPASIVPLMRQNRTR
Chain of RAF proto-oncogene serine/threonine-protein kinase (Homo sapiens), P04049 [Y340D,Y341D] (P04049 whole entry Y340D/Y341D): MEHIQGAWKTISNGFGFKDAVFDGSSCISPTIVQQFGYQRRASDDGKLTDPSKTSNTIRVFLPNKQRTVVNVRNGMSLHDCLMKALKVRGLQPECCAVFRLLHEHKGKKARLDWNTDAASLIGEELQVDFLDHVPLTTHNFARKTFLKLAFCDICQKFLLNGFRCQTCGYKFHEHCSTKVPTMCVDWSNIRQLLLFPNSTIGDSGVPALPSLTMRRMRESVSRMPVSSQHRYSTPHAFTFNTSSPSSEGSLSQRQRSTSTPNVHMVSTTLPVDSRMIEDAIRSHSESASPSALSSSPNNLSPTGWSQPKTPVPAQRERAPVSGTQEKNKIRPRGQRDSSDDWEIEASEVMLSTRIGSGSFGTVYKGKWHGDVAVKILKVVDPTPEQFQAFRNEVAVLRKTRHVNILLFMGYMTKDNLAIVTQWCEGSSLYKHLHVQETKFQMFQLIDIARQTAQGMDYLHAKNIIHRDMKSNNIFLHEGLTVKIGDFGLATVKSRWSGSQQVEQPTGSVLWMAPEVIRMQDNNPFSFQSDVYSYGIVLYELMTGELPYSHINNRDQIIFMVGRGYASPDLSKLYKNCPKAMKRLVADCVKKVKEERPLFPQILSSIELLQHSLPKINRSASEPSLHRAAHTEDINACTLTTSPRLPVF

Row | Structure (SMILES) | logD [1] | solubility [3] [µM] | Ki [4] [nM] | IC50 [5] [nM] | also measured
1 | CN(C)Cc1ccc(C2CC2C(=O)Nc2nc3ccc(-c4cn[nH]c4)cc3s2)cc1 (racemic) | 3 | < 1 | 0.6 | 89 | Ki [2]: 46 nM
2 | COc1ccc([C@H]2C[C@@H]2C(=O)Nc2nc3ccc(-c4cncc(CO)c4)cc3s2)cc1 (racemic) |  |  | 5.3 | > 20000 | inhibition [6]: > 50%; inhibition [7]: > 50%; inhibition [8]: > 50%
3 | CN(C)Cc1ccc([C@H]2C[C@@H]2C(=O)Nc2nc3ccc(-c4cn[nH]c4)cc3s2)cc1 | 3 | < 1 | 0.7 | 91 | half-life [9]: 3 h; inhibition [10]: > 50%; half-life [11]: 3.4 h; Ki [2]: 55 nM; inhibition [12]: > 50%; inhibition [13]: > 50%; AUC(0-t) [14]: 4.8 µM·h; Vd [15]: 3.2 L/kg; inhibition [16]: > 50%; inhibition [17]: > 50%; inhibition [18]: > 50%; bioavailability [19]: 35%; clearance [20]: 12 mL/min/kg; inhibition [21]: > 50%; inhibition [22]: > 50%; AUC(0-t) [23]: 2.8 µM·h
4 | COc1ccc([C@H]2C[C@@H]2C(=O)Nc2nc3ccc(OC)cc3s2)cc1 (racemic) |  | 11 (≈ 3.9 µg/mL) |  |  | 
5 | CN(C)Cc1ccc([C@H]2C[C@@H]2C(=O)Nc2nc3ccc(-c4cccnc4)cc3s2)cc1 (racemic) | 2.7 | < 1 |  |  | 
6 | CCN(CC)Cc1cc([C@H]2C[C@@H]2C(=O)Nc2nc3ccc(-c4cn[nH]c4)cc3s2)ccc1OC | 2.6 | 180 (≈ 85.6 µg/mL) |  |  | 
7 | COc1ccc2nc(NC(=O)[C@H]3C[C@@H]3c3ccccc3)sc2c1 (racemic) |  | < 2 |  |  | 
8 | CN(C)Cc1cccc([C@H]2C[C@@H]2C(=O)Nc2nc3ccc(-c4cn[nH]c4)cc3s2)c1 (racemic) | 2.8 | 11 (≈ 4.59 µg/mL) |  |  | 
9 | COc1ccc([C@H]2C[C@@H]2C(=O)Nc2nc3ccc(-c4cn[nH]c4)cc3s2)cc1 | 4.4 | < 1 |  |  | 
10 | COc1ccc(C2CC2C(=O)Nc2nc3ccc(-c4cn[nH]c4)cc3s2)cc1 (racemic) | 4.4 | < 1 |  |  | 
